Experimental data published in US20180177725A1, “CELL MEMBRANE-FORMED NANOSCALE VESICLES AND METHODS OF USING THEREOF” (WASHINGTON STATE UNIVERSITY, priority 2015, published 2018).

System: LPS-induced acute lung inflammation
Assay: Mouse acute lung inflammatory (ALI) model, LPS-induced
Type: in vivo
Details: TPCA-1 0.33 mg/kg i.v.
Experimental: Mouse acute lung inflammatory (ALI) model: CD1 male mice were utilized. ALI was induced by intracheal spray of LPS (10 mg/kg) using a Model ICA-IC-M MicroSprayer Aerosolizer (Pen-Century). Approximately 3 hours after LPS was challenged, mice were intravenously injected with HBSS, free drug (TPCA-1), TPCA-1 loaded erythrocyte vesicles and TPCA-1 loaded HL 60 vesicles at two doses of 0.33 and 1 mg/ kg.
Bronchoalveolar lavage fluid collection and cell count: At 13 hours post-LPS administration, mice were anesthetized with an i.p. injection of ketamine and xylazine mixture. The trachea was cannulated, and 1 ml HBSS was infused intratracheally and withdrawn to obtain lavage fluid. This procedure was repeated twice. […] The total cell number was determined with a hemocytometer. […] The percentages of neutrophils were determined after counting 200 cells in randomly selected fields.
Cytokine generation: Cytokine levels in the BAL were determined using commercial ELISA kits for TNF-α and IL-6 (Biolegend, San Diego, Calif.) according to the manufacturer's instructions. […]
Measurement of lung vascular permeability: The permeability was evaluated via the larvage protein content change. The total protein concentrations were determined using a BCA protein assay kit (Thermo scientific, Rockford, Ill.).

NC(=O)Nc1sc(-c2ccc(F)cc2)cc1C(N)=O [TPCA-1, 2-[(Aminocarbonyl)amino]-5-(4-fluorophenyl)-3-thiophenecarboxamide]
therapeutic benefit on neutrophil infiltration at low dose: rarely showed this benefit
